# Test results taken from patent publication US11795165B2, “Tetrahydro-benzoazepine glycosidase inhibitors” (Asceneuron SA, priority 2018, dated 2023).
# Target: His-Tagged hOGA (human O-GlcNAcase) (Homo sapiens (Human), UniProt O60502)
# Assay: Human O-GlcNAcase enzyme inhibition assay (OGA enzyme inhibition assay)
# Format: biochemical
# Settings: His-Tagged hOGA 20 nM, FL-GlcNAc 10 μM, 60 min at room temperature, pH 6.5; activity classes
# Method: Example B01: Human O-GlcNAcase Enzyme Inhibition Assay
# 5 μl of the appropriate concentration of a solution of inhibitor in McIlvaine's Buffer (pH 6.5) in 2% DMSO (for a dose response curve calculation) is added into each well of a 384-well plate (Greiner, 781900). Then, 20 nM of His-Tagged hOGA and 10 μM of FL-GlcNAc (Fluorescein mono-beta-D-(2-deoxy-2-N-acetyl) glucopyranoside; Marker Gene Technologies Inc, M1485) were added to the 384-well plate for a final volume of 20 μl. After incubation for 60 min at room temperature, the reaction was terminated by the addition of 10 μL of stop buffer (200 mM glycine, pH 10.75). The level of fluorescence (Δexc 485 nm; (Δemm 520 nm) was read on a PHERAstar machine. The amount of fluorescence measured was plotted against the concentration of inhibitor to produce a sigmoidal dose response curve to calculate an IC50. All individual data was corrected by subtraction of the background (Thiamet 3 uM=100% inhibition) whilst 0.5% DMSO was considered as the control value (no inhibition).
# His-Tagged hOGA (human O-GlcNAcase), sequence (O60502 whole entry): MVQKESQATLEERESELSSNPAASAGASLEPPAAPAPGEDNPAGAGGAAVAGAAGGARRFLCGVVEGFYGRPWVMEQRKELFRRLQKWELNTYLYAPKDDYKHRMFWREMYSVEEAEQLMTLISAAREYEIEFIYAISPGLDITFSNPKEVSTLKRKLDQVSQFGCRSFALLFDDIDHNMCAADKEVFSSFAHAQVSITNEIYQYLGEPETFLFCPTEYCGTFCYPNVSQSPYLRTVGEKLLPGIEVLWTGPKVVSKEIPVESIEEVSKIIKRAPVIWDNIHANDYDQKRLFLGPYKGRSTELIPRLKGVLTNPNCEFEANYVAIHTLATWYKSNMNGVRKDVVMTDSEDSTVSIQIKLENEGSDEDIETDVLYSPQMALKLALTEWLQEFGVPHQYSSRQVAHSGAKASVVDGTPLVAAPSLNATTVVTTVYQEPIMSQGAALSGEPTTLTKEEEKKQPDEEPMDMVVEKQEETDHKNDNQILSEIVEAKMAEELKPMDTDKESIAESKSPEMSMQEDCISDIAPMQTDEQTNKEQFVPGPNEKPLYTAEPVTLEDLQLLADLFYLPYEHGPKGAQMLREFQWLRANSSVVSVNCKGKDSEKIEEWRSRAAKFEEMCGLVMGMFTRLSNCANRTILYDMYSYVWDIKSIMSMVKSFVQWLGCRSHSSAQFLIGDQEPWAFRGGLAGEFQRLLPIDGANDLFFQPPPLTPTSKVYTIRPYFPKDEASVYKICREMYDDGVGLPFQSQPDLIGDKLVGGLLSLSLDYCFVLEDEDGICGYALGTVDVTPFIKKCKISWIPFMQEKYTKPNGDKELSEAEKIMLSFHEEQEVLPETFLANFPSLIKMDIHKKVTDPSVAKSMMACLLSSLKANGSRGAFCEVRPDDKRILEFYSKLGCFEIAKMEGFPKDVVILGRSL
row,Compound,IC50 [nM]
1,"CC(c1ccc2scnc2c1)N1CCCc2cc(C#N)ccc2C1 (racemic) [Example 15, 2-(1-(benzo[d]thiazol-5-yl)ethyl)-2,3,4,5-tetrahydro-1H-benzo[c]azepine-7-carbonitrile]",200 to 1000
2,CC(c1ccc2scnc2c1)N1CCc2ccc(-c3cnn(C)c3)cc2CC1 (racemic) [Example 109],< 50
3,"COc1ccc2c(c1)CCN(Cc1ccc3nsnc3c1)C(C)C2 (racemic) [Example 28, 5-((7-methoxy-2-methyl-1,2,4,5-tetrahydro-3H-benzo[d]azepin-3-yl)methyl)benzo[c][1,2,5]thiadiazole]",1000 to 10000
4,CC(c1ccc2scnc2c1)N1CCc2cc(S(C)(=O)=O)cnc2CC1 (racemic) [Example 51],< 50
5,"COc1ccc2c(c1)CCN(C(C)c1ccc3nsnc3c1)CC2 (single isomer, unassigned) [Example 3]",1000 to 10000
6,COc1ccc2c(c1)CCN(C(C)c1ccc3scnc3c1)CC2O (racemic) [Example 116],50 to 200
7,CSc1ccc2c(c1)CCN(C(C)c1ccc3scnc3c1)CC2 (racemic) [Example 111],< 50
8,Cc1cc(Oc2ccc3c(c2)CCN(C(C)c2ccc4scnc4c2)CC3)nc(C)n1 (racemic) [Example 62],< 50
9,CC(c1ccc2scnc2c1)N1CCCc2cc(-c3cnn(C)c3)ccc2C1 (racemic) [Example 110],200 to 1000
10,"COc1ccc2c(c1)CCN(C(C)c1ccc3nsnc3c1)CC2 (stereo not shown) [Example 1, 5-(1-(7-methoxy-1,2,4,5-tetrahydro-3H-benzo[d]azepin-3-yl)ethyl)benzo[c][1,2,5]thiadiazole]",< 50
11,"COc1ccc2c(c1)CCN(C(C)c1ccc3c(c1)OCC3)CC2 (single isomer, unassigned) [Example 9]",50 to 200
12,"COc1ccc2c(n1)CCN(C(C)c1ccc3scnc3c1)CC2 (racemic) [Example 31, 5-(1-(2-methoxy-5,6,8,9-tetrahydro-7H-pyrido[2,3-d]azepin-7-yl)ethyl)benzo[d]thiazole]",< 50
13,"CSc1ccc2c(c1)CCN(C(C)c1ccc3scnc3c1)CC2 (single isomer, unassigned) [Example 118]",1000 to 10000
14,CC(=O)Nc1cnc2c(c1)CCN(C(C)c1ccc3scnc3c1)CC2 (racemic) [Example 92],< 50
15,"COc1ccc2c(c1)CCN([C@@H](C)c1ccc3scnc3c1)CC2 [Example 5, (S)-5-(1-(7-methoxy-1,2,4,5-tetrahydro-3H-benzo[d]azepin-3-yl)ethyl)benzo[d]thiazole]",< 50
16,CC(c1ccc2scnc2c1)N1CCc2cc(NS(=O)(=O)C3CC3)cnc2CC1 (racemic) [Example 120],< 50
17,"CC(c1ccc2scnc2c1)N1CCc2ccc(O)cc2CC1 (racemic) [Example 33, 3-(1-(benzo[d]thiazol-5-yl)ethyl)-2,3,4,5-tetrahydro-1H-benzo[d]azepin-7-ol]",< 50
18,CC(c1ccc2scnc2c1)N1CCc2cnc(N)nc2CC1 (racemic) [Example 108],< 50
19,"COc1ccc2c(c1)CCN(C(C)c1cnc3c(c1)OCC3)CC2 (racemic) [Example 34, 6-(1-(7-methoxy-1,2,4,5-tetrahydro-3H-benzo[d]azepin-3-yl)ethyl)-2,3-dihydrofuro[3,2-b]pyridine]",< 50
20,"5-(1-(7-methoxy-2-methyl-1,2,4,5-tetrahydro-3H-benzo[d]azepin-3-yl)ethyl)benzo[d]thiazole [Example 19]",50 to 200

row,Compound,IC50 [nM]
1,CC(=O)Nc1ncc(CN2CCCc3ccccc3C2C)s1 (racemic) [Example 122],1000 to 10000
2,"COc1cc2c(cc1Cl)CCN(C(C)c1ccc3scnc3c1)CC2 (racemic) [Example 11, 5-(1-(7-chloro-8-methoxy-1,2,4,5-tetrahydro-3H-benzo[d]azepin-3-yl)ethyl)benzo[d]thiazole]",< 50
3,"CC(c1ccc2scnc2c1)N1CCc2ccc(S(C)(=N)=O)cc2CC1 (single isomer, unassigned) [Example 115]",1000 to 10000
4,"CC(c1ccc2scnc2c1)N1CCc2ccc(S(C)(=O)=O)cc2CC1 (racemic) [Example 18, 5-(1-(7-(methylsulfonyl)-1,2,4,5-tetrahydro-3H-benzo[d]azepin-3-yl)ethyl)benzo[d]thiazole]",< 50
5,"CC(c1ccc2scnc2c1)N1CCc2ccc(Br)cc2CC1 (racemic) [Example 14, 5-(1-(7-bromo-1,2,4,5-tetrahydro-3H-benzo[d]azepin-3-yl)ethyl)benzo[d]thiazole]",< 50
6,"CC(c1ccc2scnc2c1)N1CCc2ccc(OC(F)F)cc2CC1 (racemic) [Example 24, 5-(1-(7-(difluoromethoxy)-1,2,4,5-tetrahydro-3H-benzo[d]azepin-3-yl)ethyl)benzo[d]thiazole]",< 50
7,"COc1ccc2c(c1)CCN(Cc1ccc3c(c1)OCCO3)C(C)C2 (racemic) [Example 30, 3-((2,3-dihydrobenzo[b][1,4]dioxin-6-yl)methyl)-7-methoxy-2-methyl-2,3,4,5-tetrahydro-1H-benzo[d]azepine]",1000 to 10000
8,CC(c1ccc2scnc2c1)N1CCCc2ncc([N+](=O)[O-])cc2C1 (racemic) [Example 106],200 to 1000
9,"COc1ccc2c(c1Cl)CCN(C(C)c1ccc3scnc3c1)CC2 (racemic) [Example 10, 5-(1-(6-chloro-7-methoxy-1,2,4,5-tetrahydro-3H-benzo[d]azepin-3-yl)ethyl)benzo[d]thiazole]",50 to 200
10,"CC(C)COc1ccc2c(c1)CCN(C(C)c1ccc3scnc3c1)CC2 (racemic) [Example 26, 5-(1-(7-isobutoxy-1,2,4,5-tetrahydro-3H-benzo[d]azepin-3-yl)ethyl)benzo[d]thiazole]",200 to 1000
11,CC(=O)Nc1ccc2c(c1)CCN(C(C)c1ccc3scnc3c1)CC2 (racemic) [Example 43],< 50
12,CC(c1ccc2scnc2c1)N1CCCc2ncc(NS(=O)(=O)C3CC3)cc2C1 (racemic) [Example 121],200 to 1000
13,"COc1ccc2c(c1)CCN(Cc1ccc3scnc3c1)C(C)C2 (racemic) [Example 29, 5-((7-methoxy-2-methyl-1,2,4,5-tetrahydro-3H-benzo[d]azepin-3-yl)methyl)benzo[d]thiazole]",1000 to 10000
14,Cc1cc(Oc2ccc3c(c2)CCN(C(C)c2ccc4scnc4c2)CC3)ccn1 (racemic) [Example 60],< 50
15,"COc1ccc2c(c1)CCN(C(C)c1ccc3scnc3c1)CC2 (single isomer, unassigned) [Example 6]",200 to 1000
16,"COc1ccc2c(c1)CCN(C(C)c1ccc3c(c1)OCC3)CC2 (stereo not shown) [Example 7, 3-(1-(2,3-dihydrobenzofuran-6-yl)ethyl)-7-methoxy-2,3,4,5-tetrahydro-1H-benzo[d]azepine]",< 50
17,"COc1ccc2c(c1)CCN(C(C)c1ccc3nccnc3c1)CC2 (racemic) [Example 12, 7-methoxy-3-(1-(quinoxalin-6-yl)ethyl)-2,3,4,5-tetrahydro-1H-benzo[d]azepine]",< 50
18,"CSc1ccc2c(c1)CCN(C(C)c1ccc3scnc3c1)CC2 (single isomer, unassigned) [Example 119]",< 50
19,"CC(c1ccc2scnc2c1)N1CCc2ccccc2CC1 (single isomer, unassigned) [Example 21]",< 50
20,CC(c1ccc2scnc2c1)N1CCc2ccc(S(C)(=N)=O)cc2CC1 (racemic) [Example 37],< 50
